Results from US20220187282A1, “CARDIOMYOCYTE PROLIFERATION” (The Council of the Queensland Institute of Medical Research, priority 2019, published 2022).
Like-named read-outs stand apart in the source and are kept apart here.

Legend:
mature hCOs = experiment: mature hCO, mitosis (pH3) of cardiomyocytes; format: cell-based, human; details: 2 days, optimal concentrations
Procedure: Whole-Mount Immunostaining hCOs were fixed for 60 min with 1% paraformaldehyde (Sigma) at room temperature and washed 3× with PBS, after which they were incubated with primary antibodies (see Star Methods Table) in Blocking Buffer, 5% FBS and 0.2% Triton-X-100 (Sigma) in PBS overnight at 4° C. Cells were then washed in Blocking Buffer 2× for 2 h and subsequently incubated with secondary antibodies (see Star Methods Table) and Hoechst33342 (1:1000) overnight at 4° C. They were washed in Blocking Buffer 2× for 2 h and imaged in situ or mounted on microscope slides using Fluoromount-G (Southern Biotech).
For more detailed images an Olympus IX81 confocal microscope was used for mounted hCO imaging. For cell cycle analysis experiments 3 random fields of view were imaged and manually quantified for proliferation. These were added together to calculate the percentage of hPSC-CM proliferation in each hCO.
Hits were next validated in mature hCOs using a targeted concentration range based on their active concentrations in the initial immature hCO screen (FIG. 3A). Proliferation markers were quantified using high magnification confocal imaging as we found flow cytometry to be inaccurate in hCO (data not shown). Compounds 3, 63 and 65 had no impact on contractile force (FIG. 3B) at concentrations of 3 μM, 0.3 μM and 1 μM, respectively. […]

immature hCOs = experiment: immature hCO screen, force of contraction; format: cell-based, human; details: 2 days
Procedure: The pole deflection was used to approximate the force of contraction as per (Mills et al., 2017a). A Leica DMi8 inverted high content Imager was used to capture a 10 s time-lapse of each hCO contracting in real time at 37° C. Custom batch processing files were written in Matlab R2013a (Mathworks) to convert the stacked TIFF files to AVI, track the pole movement (using vision.PointTracker), determine the contractile parameters, produce a force-time figure, and export the batch data to an Excel (Microsoft) spreadsheet.
The compound library included 5,000 biologically annotated pre-clinical, clinical, and tool compounds. They were selected based on a combination of criteria including balancing the number of external/internal compounds, diversity of annotated targets to cover greater than 1500 biological targets, and known targets associated with cell proliferation. […] Both negative vehicle (DMSO) and positive (CHIR99021) controls were included on each plate in each experiment (FIG. 2B,C).

kinases [1] = biological target: kinases (Homo sapiens, UniProt O00443); format: biochemical; details: PIK3C2A FRET-Adapta SP; Test Conc(μM):ATP Conc(μM) 1:25
Sequence of kinases (Homo sapiens, UniProt O00443) (O00443 whole entry): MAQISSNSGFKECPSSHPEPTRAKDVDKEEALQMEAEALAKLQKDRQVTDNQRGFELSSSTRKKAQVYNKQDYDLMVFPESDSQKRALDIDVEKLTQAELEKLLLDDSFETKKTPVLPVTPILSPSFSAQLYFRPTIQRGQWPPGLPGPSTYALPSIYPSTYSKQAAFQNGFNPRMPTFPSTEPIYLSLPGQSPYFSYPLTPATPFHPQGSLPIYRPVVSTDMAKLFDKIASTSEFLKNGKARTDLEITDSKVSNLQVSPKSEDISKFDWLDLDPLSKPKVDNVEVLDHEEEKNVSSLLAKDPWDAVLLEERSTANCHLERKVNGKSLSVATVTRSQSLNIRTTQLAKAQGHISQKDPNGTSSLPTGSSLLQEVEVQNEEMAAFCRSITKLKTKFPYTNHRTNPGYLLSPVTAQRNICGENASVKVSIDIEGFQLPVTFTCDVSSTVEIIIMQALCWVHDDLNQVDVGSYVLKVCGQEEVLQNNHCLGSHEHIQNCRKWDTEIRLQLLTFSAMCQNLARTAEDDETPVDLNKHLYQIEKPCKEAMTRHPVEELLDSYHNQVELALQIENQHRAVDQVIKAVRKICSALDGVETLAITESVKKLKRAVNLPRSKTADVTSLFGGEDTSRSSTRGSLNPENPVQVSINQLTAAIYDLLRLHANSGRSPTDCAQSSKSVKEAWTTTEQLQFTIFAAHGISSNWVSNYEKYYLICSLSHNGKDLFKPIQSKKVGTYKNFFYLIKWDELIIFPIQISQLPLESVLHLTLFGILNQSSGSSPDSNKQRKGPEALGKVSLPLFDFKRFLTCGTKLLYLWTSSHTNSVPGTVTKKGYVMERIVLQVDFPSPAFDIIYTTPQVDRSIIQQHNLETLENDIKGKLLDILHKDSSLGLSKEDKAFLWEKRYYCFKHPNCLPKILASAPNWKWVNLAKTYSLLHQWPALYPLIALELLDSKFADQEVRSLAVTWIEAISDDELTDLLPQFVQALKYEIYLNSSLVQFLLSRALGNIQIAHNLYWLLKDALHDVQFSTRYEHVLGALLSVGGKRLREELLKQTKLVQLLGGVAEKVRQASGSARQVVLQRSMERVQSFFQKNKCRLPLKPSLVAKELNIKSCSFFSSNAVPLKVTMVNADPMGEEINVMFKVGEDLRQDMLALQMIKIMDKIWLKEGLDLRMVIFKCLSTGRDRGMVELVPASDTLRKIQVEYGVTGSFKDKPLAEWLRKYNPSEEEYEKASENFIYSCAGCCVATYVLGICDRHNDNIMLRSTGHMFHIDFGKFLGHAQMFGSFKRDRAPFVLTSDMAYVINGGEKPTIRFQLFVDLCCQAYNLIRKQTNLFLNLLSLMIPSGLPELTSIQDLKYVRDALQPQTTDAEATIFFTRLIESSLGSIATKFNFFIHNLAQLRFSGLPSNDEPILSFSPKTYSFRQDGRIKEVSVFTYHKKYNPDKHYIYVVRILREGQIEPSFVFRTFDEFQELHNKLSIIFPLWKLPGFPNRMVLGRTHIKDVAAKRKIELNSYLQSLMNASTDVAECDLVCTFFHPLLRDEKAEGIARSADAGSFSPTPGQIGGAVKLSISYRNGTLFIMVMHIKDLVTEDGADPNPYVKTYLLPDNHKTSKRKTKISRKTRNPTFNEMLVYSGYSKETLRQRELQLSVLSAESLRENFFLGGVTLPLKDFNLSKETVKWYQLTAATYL

kinases [2] = biological target: kinases (Homo sapiens, UniProt P68400); format: biochemical; details: CSNK2A1 (CK2alpha1) Z-Lyte SP; Test Conc(μM):ATP Conc(μM) 1:5
kinases [3] = biological target: kinases (Homo sapiens, UniProt P54762); format: biochemical; details: EPHB1 FRET-Z-Lyte SP; Test Conc(μM):ATP Conc(μM) 1:50
Sequence of kinases (Homo sapiens, UniProt P54762) (P54762 18-984): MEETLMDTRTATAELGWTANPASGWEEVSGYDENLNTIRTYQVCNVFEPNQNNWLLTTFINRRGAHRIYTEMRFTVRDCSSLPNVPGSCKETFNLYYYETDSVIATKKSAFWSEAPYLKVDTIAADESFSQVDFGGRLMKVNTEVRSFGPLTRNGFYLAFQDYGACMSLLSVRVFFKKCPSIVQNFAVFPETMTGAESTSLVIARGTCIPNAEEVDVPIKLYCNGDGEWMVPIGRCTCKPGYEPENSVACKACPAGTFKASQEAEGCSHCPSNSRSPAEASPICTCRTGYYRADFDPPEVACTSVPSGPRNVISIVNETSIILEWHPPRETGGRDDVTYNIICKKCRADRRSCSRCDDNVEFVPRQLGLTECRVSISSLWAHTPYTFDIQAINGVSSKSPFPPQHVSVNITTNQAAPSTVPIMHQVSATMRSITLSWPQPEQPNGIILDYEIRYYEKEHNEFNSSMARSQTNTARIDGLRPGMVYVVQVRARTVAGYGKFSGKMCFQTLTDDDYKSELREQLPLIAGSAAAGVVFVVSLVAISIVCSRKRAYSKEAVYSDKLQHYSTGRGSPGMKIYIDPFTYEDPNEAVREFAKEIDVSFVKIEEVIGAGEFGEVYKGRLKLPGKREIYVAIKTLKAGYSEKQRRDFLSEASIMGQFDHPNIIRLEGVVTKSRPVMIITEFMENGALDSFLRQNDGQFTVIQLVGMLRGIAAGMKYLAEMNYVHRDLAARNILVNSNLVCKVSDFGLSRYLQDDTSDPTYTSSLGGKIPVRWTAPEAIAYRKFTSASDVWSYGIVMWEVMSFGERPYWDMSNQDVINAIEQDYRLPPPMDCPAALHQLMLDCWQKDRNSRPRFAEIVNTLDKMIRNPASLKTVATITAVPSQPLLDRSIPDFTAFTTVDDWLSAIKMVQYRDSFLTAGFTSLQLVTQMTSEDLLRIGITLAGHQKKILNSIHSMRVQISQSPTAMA

kinases [4] = biological target: kinases (Homo sapiens, UniProt P15056); format: biochemical
Sequence of kinases (Homo sapiens, UniProt P15056) (P15056 whole entry): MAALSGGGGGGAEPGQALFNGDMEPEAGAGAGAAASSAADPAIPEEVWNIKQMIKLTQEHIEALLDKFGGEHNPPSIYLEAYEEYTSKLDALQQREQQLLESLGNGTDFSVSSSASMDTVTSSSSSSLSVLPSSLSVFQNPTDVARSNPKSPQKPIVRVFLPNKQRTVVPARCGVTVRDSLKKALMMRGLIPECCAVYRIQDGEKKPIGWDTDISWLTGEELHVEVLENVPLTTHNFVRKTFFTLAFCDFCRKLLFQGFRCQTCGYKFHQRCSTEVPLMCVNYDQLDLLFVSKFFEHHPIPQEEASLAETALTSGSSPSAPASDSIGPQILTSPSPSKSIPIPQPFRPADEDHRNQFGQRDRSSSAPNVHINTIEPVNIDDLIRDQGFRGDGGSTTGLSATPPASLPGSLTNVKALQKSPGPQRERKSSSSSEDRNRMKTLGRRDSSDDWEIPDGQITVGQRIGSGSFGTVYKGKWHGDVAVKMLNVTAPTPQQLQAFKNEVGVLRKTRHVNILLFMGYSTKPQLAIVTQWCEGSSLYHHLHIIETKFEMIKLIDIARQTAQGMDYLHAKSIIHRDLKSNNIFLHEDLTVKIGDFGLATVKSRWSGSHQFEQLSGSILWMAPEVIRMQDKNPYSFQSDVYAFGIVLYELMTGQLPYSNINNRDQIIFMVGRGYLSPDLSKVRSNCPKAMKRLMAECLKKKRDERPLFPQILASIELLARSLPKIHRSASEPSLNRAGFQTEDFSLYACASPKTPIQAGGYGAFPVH

kinases [5] = biological target: kinases (Homo sapiens, UniProt Q86Z02); format: biochemical; details: HIPK1 (Myak) FRET-Z-Lyte SP; Test Conc(μM):ATP Conc(μM) 1:5
kinases [6] = biological target: kinases (Homo sapiens, UniProt Q9BTU6); format: biochemical; details: PI4K2A *Mn* FRET-Adapta SP; Test Conc(μM):ATP Conc(μM) 1:10
kinases [7] = biological target: kinases (Homo sapiens, UniProt P27448); format: biochemical; details: MARK3 FRET-Z-Lyte SP; Test Conc(μM):ATP Conc(μM) 1:5
kinases [8] = biological target: kinases (Homo sapiens, UniProt P29317); format: biochemical; details: EPHA2 FRET-Z-Lyte SP; Test Conc(μM):ATP Conc(μM) 1:75
kinases [9] = biological target: kinases (Homo sapiens, UniProt P08581); format: biochemical; details: MET (cMet) FRET-Z-Lyte SP; Test Conc(μM):ATP Conc(μM) 1:50
kinases [10] = biological target: kinases (Homo sapiens, UniProt Q9Y2K2); format: biochemical; details: SIK3 FRET-Lantha SP; Test Conc(μM) 1
kinases [11] = biological target: kinases (Homo sapiens, UniProt P25098); format: biochemical; details: ADRBK1 (GRK2) FRET-Z-Lyte SP; Test Conc(μM):ATP Conc(μM) 1:10
kinases [12] = biological target: kinases (Homo sapiens, UniProt Q99683); format: biochemical; details: MAP3K5 (ASK1) FRET-Lantha SP; Test Conc(μM) 1
Sequence of kinases (Homo sapiens, UniProt Q99683) (Q99683 whole entry): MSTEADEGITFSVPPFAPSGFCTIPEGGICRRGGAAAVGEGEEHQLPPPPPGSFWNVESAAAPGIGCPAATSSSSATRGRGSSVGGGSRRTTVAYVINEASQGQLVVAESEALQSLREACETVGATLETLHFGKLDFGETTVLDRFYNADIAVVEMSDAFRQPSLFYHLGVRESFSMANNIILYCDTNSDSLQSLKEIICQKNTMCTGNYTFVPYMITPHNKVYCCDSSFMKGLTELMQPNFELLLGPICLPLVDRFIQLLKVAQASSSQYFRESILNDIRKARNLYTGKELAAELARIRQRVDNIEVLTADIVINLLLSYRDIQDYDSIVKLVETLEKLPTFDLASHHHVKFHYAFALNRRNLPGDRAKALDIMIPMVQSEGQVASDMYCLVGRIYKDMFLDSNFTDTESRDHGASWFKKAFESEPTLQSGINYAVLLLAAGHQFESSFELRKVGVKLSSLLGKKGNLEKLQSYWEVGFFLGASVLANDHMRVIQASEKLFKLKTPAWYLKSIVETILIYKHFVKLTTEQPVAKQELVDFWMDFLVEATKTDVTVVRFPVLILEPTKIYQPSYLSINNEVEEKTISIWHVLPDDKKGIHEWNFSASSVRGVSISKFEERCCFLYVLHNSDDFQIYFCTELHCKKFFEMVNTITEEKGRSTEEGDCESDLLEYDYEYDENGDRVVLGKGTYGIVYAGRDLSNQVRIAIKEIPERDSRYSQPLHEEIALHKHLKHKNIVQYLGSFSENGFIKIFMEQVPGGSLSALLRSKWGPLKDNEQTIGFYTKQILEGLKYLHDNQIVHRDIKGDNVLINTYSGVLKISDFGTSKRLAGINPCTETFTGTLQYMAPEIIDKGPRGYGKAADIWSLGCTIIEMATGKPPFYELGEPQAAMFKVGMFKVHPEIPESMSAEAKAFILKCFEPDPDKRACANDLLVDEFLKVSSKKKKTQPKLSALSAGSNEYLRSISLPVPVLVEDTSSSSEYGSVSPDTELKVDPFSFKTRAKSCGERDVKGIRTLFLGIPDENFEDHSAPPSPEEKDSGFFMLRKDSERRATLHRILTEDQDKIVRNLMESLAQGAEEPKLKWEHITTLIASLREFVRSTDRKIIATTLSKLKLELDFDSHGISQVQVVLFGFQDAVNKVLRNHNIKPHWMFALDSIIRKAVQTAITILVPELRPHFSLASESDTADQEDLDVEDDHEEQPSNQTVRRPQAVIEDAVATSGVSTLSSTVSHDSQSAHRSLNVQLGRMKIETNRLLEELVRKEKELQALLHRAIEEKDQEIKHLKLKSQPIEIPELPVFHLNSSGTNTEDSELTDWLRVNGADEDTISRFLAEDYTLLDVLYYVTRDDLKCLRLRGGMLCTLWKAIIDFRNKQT

kinases [13] = biological target: kinases (Homo sapiens, UniProt Q02779); format: biochemical; details: MAP3K10 (MLK2) FRET-Lantha SP; Test Conc(μM) 1
kinases [14] = biological target: kinases (Homo sapiens, UniProt P24941); format: biochemical
[15] = bRAF Cascade FRET-Z-Lyte SP, Test Conc(μM):ATP Conc(μM) 1:100
[16] = bRAF FRET-Lantha SP, Test Conc(μM) 1
[17] = CDK2/Cyclin E1 FRET-Lantha SP, Test Conc(μM) 1
[18] = CDK2/Cyclin O FRET-Lantha SP, Test Conc(μM) 1
[19] = CDK2/cyclin A1 FRET-Lantha SP, Test Conc(μM) 1
[20] = CDK2/cyclin A FRET-Z-Lyte SP, Test Conc(μM):ATP Conc(μM) 1:25

SMILES | cell cycle progression and mitosis of cardiomyocytes (pH3+) (mature hCOs) | contractile parameters / force of contraction (immature hCOs) | Mean Inhib (%) (kinases [1]) | Mean Inhib (%) (kinases [2]) | Mean Inhib (%) (kinases [3]) | Mean Inhib (%) (kinases [4]; [15]) | Mean Inhib (%) (kinases [4]; [16]) | Mean Inhib (%) (kinases [5]) | Mean Inhib (%) (kinases [6]) | Mean Inhib (%) (kinases [7]) | Mean Inhib (%) (kinases [8]) | Mean Inhib (%) (kinases [9]) | Mean Inhib (%) (kinases [10]) | Mean Inhib (%) (kinases [11]) | Mean Inhib (%) (kinases [12]) | Mean Inhib (%) (kinases [13]) | Mean Inhib (%) (kinases [14]; [17]) | Mean Inhib (%) (kinases [14]; [18]) | Mean Inhib (%) (kinases [14]; [19]) | Mean Inhib (%) (kinases [14]; [20])
Cc1ccc(NC(=O)c2ccnc(N3CCOCC3)c2)cc1Nc1ccnc(N2CC(C)OC(C)C2)n1 (stereo not shown) [compound 3] | promoted cell cycle progression and mitosis | without affecting contractile parameters | 1.7 | 6.1 | 3.5 | 10.3 | 66.8 | 1.3 | −2.4 | 8.9 | 10.8 | 0.4 | 5.6 | 8.4 | 0.2 | 0.6 | 13.8 | 2.7 | −1.8 | 6.2
Cc1cc(Oc2ccnc(Nc3ccc(S(N)(=O)=O)cc3)c2)c(-c2ccccn2)nc1C [compound 65] | promoted cell cycle progression and mitosis | without affecting contractile parameters | 8.7 | 2.4 | 47.1 | 16.7 | 10.4 | 1.2 | −2.9 | 4.7 | 30.7 | 2.5 | −4.7 | 1.0 | 6.1 | 2.7 | 10.6 | 3.0 | 4.9 | 5.0
